In patent publication US10231952B2, “Use of arginine vasopressin receptor antagonists for the treatment of prostate cancer” (UNIVERSITY OF MIAMI, priority 2014, dated 2019):
“Also recorded” adds a separate entry of the source.

Legend:
[1] = tested on: 22Rv1, CWR-R1, PC3 cells; assay: AVP stimulation of castration resistant prostate cancer cell proliferation (FIG. 9); assay type: cell-based, human; conditions: 1 nM AVP; six days
Procedure: (§1) FIG. 9A-9D. […] (A) 22Rv1, (B) CWR-R1, (C) PC3, or (D) RWPE-1 cells were plated at 10,000 cells/well in 24 well dishes and then treated with vehicle or arginine vasopressin (AVP) at the indicated concentrations the following day. Media were changed every day. Cells were harvested six days post treatment. Data represent four experiments performed in triplicate and are plotted as fold (treatment/vehicle)±SEM. Significance was determined using a Student's t-test comparing to vehicle controls (**, p<0.01).

[2] = tested on: RWPE1 cells; assay: AVP effect on normal prostate epithelial cell proliferation; assay type: cell-based, human
Procedure: as §1
(§2) The effect of arginine vasopressin on the proliferation of a castration-resistant prostate cancer cell line (i.e., 22Rv1) was evaluated. Briefly, 22RV1 cells were treated with 1 nM, 10 nM or 1 μM arginine vasopressin (AVP) for six days followed by live cell counting.

[3] = tested on: ERK1/2 phosphorylation; assay: Phospho-ERK1/2 immunoblot, AVP plus/minus Relcovaptan (FIG. 10); assay type: cell-based, human; conditions: 22Rv1 or CWR-R1, 25 min
Text: FIG. 10. […] Lysates were immunoblotted for phospho-ERK1/2 and total ERK1/2.

[4] = tested on: 22Rv1 cells; assay: AVP treatment of 22Rv1 cells, live cell counting (Example 9); assay type: cell-based, human; conditions: 1 nM, 10 nM or 1 μM AVP, six days
Procedure: as §2

[5] = tested on: ERK phosphorylation; assay: Total and phosphoERK after AVP stimulation of 22Rv1 with AVPR1a antagonist pretreatment (FIG. 18); assay type: cell-based, human; conditions: 10 nM AVP; for block of AVP-stimulated phosphoERK: antagonist pretreatment
Procedure: Total and phosphoERK levels were assessed following stimulation of 22Rv1 with 10 nM AVP for 25 minutes and pretreatment with AVPR1a antagonist (or vehicle control).

[6] = tested on: AVP type V1a and V2 receptors; conditions: cited from earlier work
[7] = tested on: 22Rv1 cells; assay: SR49059 treatment, cell number and trypan blue cell death, 22Rv1; assay type: cell-based, human; conditions: low nanomolar concentrations, five days
Procedure: (§3) FIGS. 7A-7I. Pharmacologic blockade of AVPR1a decreases human prostate cancer cell but not normal prostate epithelial cell proliferation and selectively kills human prostate cancer cells. (A) 22Rv1, (B) CWR-R1, (C) PC3, and (D) RWPE-1 cells were treated with vehicle or SR49059 at the indicated concentrations and harvested five days post treatment. A representative experiment (of four) was performed in triplicate and data are plotted as cell number (thousands)±SD. Significance was determined using a Student's t-test comparing to vehicle controls (**, p<0.01; ***, p<0.001). (E) 22Rv1, (F) CWR-R1, (G) PC3 or (H) RWPE-1 cells were plated and grown as described above. Adherent and floating cells were harvested and cells that stained with trypan blue or that excluded stain were counted. A representative experiment (of four) was performed in triplicate. Significance was determined using a Student's t-test comparing to vehicle controls (**, p<0.01; ***, p<0.001). (I) Lysates from cells in (A)-(D) were immunoblotted with antibodies that recognize cleaved PARP and actin.

[8] = tested on: CWR-R1 cells; assay: SR49059 treatment, cell number and trypan blue cell death, CWR-R1; assay type: cell-based, human; conditions: low nanomolar concentrations, five days
Procedure: as §3

[9] = tested on: PC3 cells; assay: SR49059 treatment, cell number and trypan blue cell death, PC3; assay type: cell-based, human; conditions: low nanomolar concentrations, five days
Procedure: as §3

[10] = tested on: RWPE1 cells; assay: SR49059 treatment, cell number and trypan blue cell death, RWPE-1 normal prostate epithelial cells; assay type: cell-based, human
Procedure: as §3

[11] = tested on: LNCaP cells; assay: Relcovaptan treatment of androgen dependent LNCaP cells (data not shown); assay type: cell-based, human
[12] = tested on: cleaved PARP; assay: Immunoblot for cleaved PARP after Relcovaptan treatment; assay type: cell-based, human
Procedure: as §3

[13] = tested on: 22Rv1 xenografts; assay: Pilot 22Rv1 xenograft in castrated nude mice, Relcovaptan IP; assay type: in vivo; conditions: 2.5 mg/kg IP, 5 times per week
Procedure: FIG. 8. […] 22RV1 cells (2×106) resuspended in BD Matrigel were injected into both hind flanks of castrated nude mice (n=8). […] Top graph, once palpable, tumor size was measured five days per week. Significance was determined using a Student's t-test comparing to vehicle controls (* p<0.05). Lower graph, mice were weighed five days per week.

[14] = tested on: 22Rv1, VCaP and RWPE1 cells; assay: Relcovaptan on prostate cancer cell growth / anchorage independent growth (Example 10); assay type: cell-based, human
Procedure: The effect of an AVPR1a antagonist on the anchorage independent growth of a castration-resistant prostate cancer cell line (i.e., 22Rv1) was evaluated.

[15] = tested on: VCaP xenografts; assay: Castration resistant VCaP xenografts in SCID mice, oral Relcovaptan; assay type: in vivo; conditions: 50 mg/kg daily oral gavage, 14 days
Procedure: Subcutaneous VCaP xenografts (bilateral) were established in SCID mice. Mice were castrated when tumors reached 250-300 mm^3. […] Circulating prostate specific antigen (PSA) was measured by ELISA in mice prior to tumor xenografting (baseline), at the time of castration (pre-treatment) and at the time of sacrifice (post-treatment).

[16] = tested on: 22Rv1 cells; assay: shAVPR1a depletion, growth curves and trypan blue cell death, 22Rv1; assay type: cell-based, human; conditions: 22Rv1 stably expressing shAVPR1a vs shGFP
Text: (§4) FIGS. 3A-3D. Depletion of AVPR1a decreases aggressive prostate cancer cell proliferation. […] Live cells (trypan blue exclusion) were counted at the indicated times (hr). Significant differences (p<0.05) in proliferation between shGFP and shAVPR1a-transduced cells occurred by 48-72 hr in CRPC (A-C) but not in normal prostate epithelial cells, RWPE-1 (D). Lower panels quantify AVPR1a mRNA depletion by shRNA in each cell line.
(§5) FIGS. 4A-4E. Depletion of AVPR1a promotes death of aggressive prostate cancer cells. (A) 22Rv1, (B) CWR-R1, (C) PC3 or (D) RWPE-1 cells stably expressing either plk0.1-shGFP or -shAVPR1a were plated and grown as in FIG. 3. Adherent and floating cells were harvested and cells that stained with trypan blue or that excluded stain were counted. Data represent three independent experiments performed in triplicate. Significance was determined using a Student's t-test comparing to shGFP controls (***, p<0.001). (E) Cell lysates were immunoblotted with antibodies that recognize cleaved PARP, cyclin A, and actin.

[17] = tested on: CWR-R1 cells; assay: shAVPR1a depletion, growth curves and trypan blue cell death, CWR-R1; assay type: cell-based, human; conditions: CWR-R1 stably expressing shAVPR1a vs shGFP
Text: as §4, §5

[18] = tested on: PC3 cells; assay: shAVPR1a depletion, growth curves and trypan blue cell death, PC3; assay type: cell-based, human; conditions: PC3 stably expressing shAVPR1a vs shGFP
Text: as §4, §5

[19] = tested on: RWPE1 cells; assay: shAVPR1a depletion, growth curves and trypan blue cell death, RWPE1; assay type: cell-based, human; conditions: RWPE1 stably expressing shAVPR1a vs shGFP
Text: as §4, §5

[20] = tested on: cleaved PARP, Cyclin A, p-RB; assay: Immunoblot of apoptosis and G1/S cell-cycle markers after AVPR1a depletion; assay type: cell-based, human
Procedure: as §5
(§6) This finding is significant as AR splice variants are a proposed mechanism of resistance to drugs that target full length AR including the newer agents, abiraterone and enzalutamide (6,7). Thus, targeting AVPR1a may be a strategy to overcome therapeutic resistance to these next generation drugs.
Next, Western-blot analysis was performed in PC3, 22Rv1 and LNCaP Abl (CRPC) and RWPE1 (non-tumorigenic prostate epithelial cells) to examine G1/S cell-cycle markers: Cyclin A, p-RB or P27.

[21] = tested on: full length AR and AR splice variants; assay: Immunoblot of AR after AVPR1a depletion in 22Rv1; assay type: cell-based, human
Text: FIG. 5. AVPR1a knock down results in down-regulation of androgen receptor (AR) and AR splice variant expression in human prostate cancer cells. […] ARdeltaLBD refers to C-terminally truncated AR splice variants such as AR3.
as §6

[22] = tested on: 22Rv1, CWR-R1 or PC3 cells; assay: Soft agar anchorage independent growth after AVPR1a depletion; assay type: cell-based, human
Procedure: FIG. 6. AVPR1a is necessary for anchorage independent growth of human prostate cancer cells. The growth in soft agar of 22Rv1, CWR-R1 or PC3 cells stably expressing the indicated shRNA vectors was assessed. Average colony number per plate±SEM is plotted. Data represent two independent experiments performed in triplicate. Significance was determined using a Student's t-test comparing to shGFP controls (***, p<0.001).
as §6
Next, PC3 and 22RV1 cells (CRPC cell lines) in which AVPR1a was depleted (or control shGFP) were cultured in soft agar for three weeks to assess anchorage independent growth (anoikis resistance).

[23] = tested on: CRPC cells (PC3, 22RV1, LNCaP-abl, C4-2, CWR-R1); assay: shAVPR1a depletion, live cell counting, CRPC cells (Example 8); assay type: cell-based, human
Text: (§7) (● shGFP served as a control, SEQ ID NO: 5-[…] A summary of the human prostate cell lines used is provided below in Table 1:
(§8) Data represent three independent experiments performed in triplicate for all cell lines except C4-2, which was done one time in triplicate. […] A second distinct AVPR1a shRNA produced similar results (data not shown).

[24] = tested on: androgen dependent cells, LNCaP, VCaP and non-tumorigenic prostate epithelial RWPE1 cells; assay: shAVPR1a depletion, live cell counting, androgen dependent and normal cells (Example 8); assay type: cell-based, human
Text: as §7, §8

NC(=O)CC[C@@H]1NC(=O)[C@H](Cc2ccccc2)NC(=O)[C@H](Cc2ccc(O)cc2)NC(=O)[C@@H](N)CSSC[C@@H](C(=O)N2CCC[C@H]2C(=O)N[C@@H](CCCN=C(N)N)C(=O)NCC(N)=O)NC(=O)[C@H](CC(N)=O)NC1=O [AVP, arginine vasopressin]
PC cell proliferation [1]: increased PC cell proliferation; also recorded: stimulates castration resistant prostate cancer cell proliferation
growth of normal RWPE1 cells ([2]; 1 nM AVP, six days): did not stimulate growth
RWPE1 cell proliferation ([2]; Example 9, data not shown): did not stimulate RWPE1 cell proliferation
proliferation of RWPE-1 ([2]; higher AVP doses): Decreased proliferation
ERK 1/2 phosphorylation (activation) ([3]; 1 nM AVP): activated ERK 1/2; also recorded: stimulates ERK1/2 phosphorylation
CRPC proliferation [4]: stimulated CRPC proliferation
phosphoERK levels ([5]; 25 minutes): increased phosphoERK levels

Cc1nc2c([nH]1)-c1ccccc1N(C(=O)c1ccc(NC(=O)c3ccccc3-c3ccccc3)cc1)CC2 [Conivaptan]
AVP receptor blockade / selectivity [6]: non-selectively blocks both AVP type V1a and V2 receptors

COc1ccc(S(=O)(=O)N2c3ccc(Cl)cc3[C@](O)(c3ccccc3Cl)[C@@H]2C(=O)N2CCC[C@H]2C(N)=O)cc1OC [Relcovaptan]
cell death [7]: promoted CRPC cell death
proliferation [7]: inhibited proliferation
cell death [8]: promoted CRPC cell death
proliferation [8]: inhibited proliferation
cell death [9]: promotes cell death; also recorded: promoted CRPC cell death
proliferation [9]: inhibited proliferation
cell proliferation ([10]; 1-10 nM): no effect
cell survival ([10]; 1-10 nM): no effect
cell death ([10]; doses as high as 10 μM, data not shown): did not promote RWPE1 cell death
cell death [11]: approx. 20%
growth [11]: inhibited growth inhibition
cleavage of PARP ([12]; PC cells): cleavage of PARP
cleavage of PARP ([12]; normal prostate cells): not normal prostate cells
adverse effects / toxicity [13]: no adverse effects; also recorded: lack of toxicity
tumor growth ([13]; castrated nude mice): significantly decreased tumor growth at early time points; also recorded: decreases CRPC in vivo growth at early time points
inhibition of AVP-stimulated ERK phosphorylation ([3]; 1 nM AVP plus 1 nM Relcovaptan): inhibited this phosphorylation of ERK
anchorage independent growth ([14]; 10 μM or 25 μM, six days, FIG. 17): inhibits prostate cancer cell anchorage independent growth
prostate cancer cell proliferation ([14]; FIG. 16): inhibits prostate cancer cell proliferation
block of AVP-stimulated phosphoERK [5]: blocks ERK signaling
block of AVP-stimulated phosphoERK ([5]; listed as relcovaptan): blocked
body weight vs controls [15]: no loss of weight
growth of castration resistant VCaP xenografts ([15]; started seven days after castration): significantly slowed the growth; also recorded: slows growth of VCaP tumors
circulating PSA levels ([15]; ELISA): stabilization of PSA levels

shAVPR1a: selective shRNA to AVPR1a, SEQ ID NO: 2 (hairpin printed as SEQ ID NO: 4 in b155) (GGTATGTGGAAGGACTCGCCTAAATCTTC)
cell death [16]: increased cell death
cell proliferation [16]: decreased cell proliferation
cell death [17]: increased cell death
cell proliferation [17]: decreased cell proliferation
cell death [18]: increased cell death
cell proliferation [18]: decreased cell proliferation
cell death [19]: not the normal human prostate epithelial RWPE1 cells
PARP cleavage ([20]; AVPR1a-depleted PC cells): observed
cyclin A ([20]; CRPC lines PC3, 22Rv1, LNCaP Abl, Example 8): decreased cyclin A
phosphorylation of the retinoblastoma protein ([20]; PC3 and 22Rv1, Example 8): decreased phosphorylation of the retinoblastoma protein
Cyclin A levels (G1 to S progression) ([20]; PC cells, Example 1): decreased levels of Cyclin A
phosphorylation of the retinoblastoma protein ([20]; RWPE1, Example 8): not RWPE1 cells
PARP cleavage ([20]; RWPE1 cells): not in RWPE1 cells
levels of full length AR and AR splice variants [21]: decreased levels of full length AR and AR splice variants
anchorage independent growth ([22]; PC3 and 22RV1, soft agar, three weeks, Example 8): significantly reduced anchorage independent growth
anchorage independent growth in soft agar ([22]; three PC cell lines (22Rv1, CWR-R1, PC3)): inhibition of anchorage independent growth in soft agar
proliferation of CRPC cells [23]: greatly decreased proliferation
androgen dependent and normal prostate epithelial cell proliferation [24]: less effect
